# Test results from publication PMC7356157, “Shorter Antibacterial Peptide Having High Selectivity for E. coli Membranes and Low Potential for Inducing Resistance” (Microorganisms, 2020).
# Like-named read-outs stand apart in the source and are kept apart here. No end group written: not given here.
# What was measured:
# [1] = tested on: P. aeruginosa 27853; test: MIC by broth microdilution; assay type: cell-based; conditions: MHB, 18 h, 37 °C
# [2] = tested on: human red blood cells (hRBC); test: Haemolytic activity (MHC); assay type: cell-based; conditions: 5% v/v hRBC in 1X PBS, 200–0.39 µM, 1 h, 37 °C, absorbance 560 nm
# Description: A haemolytic activity assay was used for determining whether peptides acted on hRBC membrane by calculating the minimum haemolytic concentration (MHC). Briefly, 100 µL serial dilutions of peptides were incubated in a 96-well plate with an equal volume of a fresh hRBC suspension at 5% v/v in 1X PBS (200–0.39 µM final peptide concentrations). The samples were spun at 1000× g for 5 min after having been incubated at 37 °C for 1 h and a Multiskan spectrometer (Thermo Fisher) was used for measuring 100 µL supernatant absorbance at 560 nm. Treated hRBC absorbance 0.1% Triton X-100 or 100% haemolysis was used as positive control.
# [3] = tested on: E. coli ATCC 25922; assay type: cell-based; conditions: for MIC E. coli 25922: broth microdilution, MHB, ~5 × 10^5 CFU/mL, 18 h, 37 °C, OD 620 nm, 100 to 0.2 µM; for MIC against E. coli 25922, MHB: no serum
# [4] = tested on: E. coli clinical isolate 44; test: Resistance profile of clinical isolate (VITEK-2); assay type: cell-based; conditions: Escherichia coli, isolate from blood
# Source text: (§1) Approximately 50 bacterial samples were then collected from E. coli-infected patients for evaluating activity of the peptides against some clinical isolates. These samples were identified and biochemically and metabolically characterised using the VITEK-2 equipment. Isolates were profiled regarding their resistance or susceptibility to a panel of conventionally used antibiotics.
# [5] = tested on: E. coli clinical isolate 4; test: Resistance profile of clinical isolate (VITEK-2); assay type: cell-based; conditions: Escherichia coli, isolate from urine
# Source text: as §1
# [6] = tested on: E. coli clinical isolate 40; test: Resistance profile of clinical isolate (VITEK-2); assay type: cell-based; conditions: Escherichia coli, isolate from blood
# Source text: as §1
# [7] = tested on: E. coli 25922; test: Antibacterial activity in the presence of human sera; assay type: cell-based; conditions: for MIC against E. coli 25922, Serum (without Pre-Incubation): peptide diluted in fresh human sera (100%), then inoculum in MHB ~5 × 10^5 CFU/mL, 18 h, 37 °C
# Description: The second assay involved peptide dilution in fresh human sera (100%) pre-incubated for 6 h at 37 °C in a humid chamber before putting them in contact with the bacterial inoculum diluted in MHB (~5 × 10^5 CFU/mL). The assay was incubated and read as mentioned in the microdilution section.
# [8] = tested on: E. coli N°40 (clinical isolate); conditions: clinical isolate from blood, broth microdilution
# Description: (§2) The standard broth microdilution method was used for determining the peptides’ MIC [41]. […] Bacteria in Müller–Hinton broth (MHB) were used as negative control. […] The MIC was determined as the lowest peptide concentration at which bacterial growth was not detected.
# as §1
# [9] = tested on: E. coli N°4 (clinical isolate); conditions: clinical isolate from urine, broth microdilution
# Description: as §2, §1
# [10] = tested on: E. coli N°44 (clinical isolate); conditions: clinical isolate from blood, ESBL (+), broth microdilution
# Description: as §2, §1
# [11] = tested on: E. coli; conditions: for FIC Index: peptide + ciprofloxacin, lowest checkerboard FIC index (method 3); for FIC P (peptide): with ciprofloxacin
# Description: (§4) The checkerboard method was used for evaluating peptide antibacterial activity in combination with antibiotics [43]. […] Absorbance was measured at 620 nm and individual peptide and antibiotic MIC and combined MIC were obtained. […] The fractional inhibitory concentration index (FICI) was then calculated as the sum of peptide FIC + antibiotic FIC. A ≤ 0.5 FICI indicated synergy, 0.5 to ≤4 FICI indifference, and >4 FICI antagonism [45].
# (§5) The results were interpreted by taking the lowest checkerboard FIC index (previously reported method 3) [44].
# [12] = tested on: E. coli ML35 43827; test: Bactericidal activity (MBC); assay type: cell-based
# Description: (§3) Bactericidal activity was evaluated by sowing an aliquot of Luria Bertani agar (LBA) in the wells where no growth had been detected in the MIC assay.
# [13] = tested on: E. coli ATCC 25922; test: Bactericidal activity (MBC); assay type: cell-based; conditions: aliquots of no-growth MIC wells on LBA, 18 h, 37 °C; kills 99.9%
# Description: as §3
# [14] = tested on: E. coli ML35 43827; assay type: cell-based; conditions: broth microdilution
# [15] = tested on: E. coli; conditions: for FIC Index: peptide + gentamicin, lowest checkerboard FIC index (method 3); for FIC P (peptide): with gentamicin
# Description: as §4, §5
# [16] = tested on: E. coli 35218 (ampicillin-resistant ATCC 35218 strain); assay type: cell-based; conditions: broth microdilution
# [17] = tested on: E. coli N°44 (clinical isolate); assay type: cell-based
# Description: as §3
# Approximately 50 bacterial samples were then collected from E. coli-infected patients for evaluating activity of the peptides against some clinical isolates. These samples were identified and biochemically and metabolically characterised using the VITEK-2 equipment. Isolates were profiled regarding their resistance or susceptibility to a panel of conventionally used antibiotics. Three E. coli isolates having different resistance profiles were then selected following such characterisation (Appendix A): • Isolate 4 (from urine): extended spectrum beta-lactamase (ESBL) (-), resistant to ampicillin, quinolones and co-trimoxazole. • Isolate 40 (from blood): ESBL (-), resistant to ampicillin, 1st-generation cephalosporins and co-trimoxazole. • Isolate 44 (from blood): ESBL (+), resistant to aminoglycosides, quinolones, β-lactams (including 1st-, 3rd- and 4th-generation cephalosporins).
# [18] = tested on: E. coli 35218; assay type: cell-based
# Description: as §3
# [19] = tested on: E. coli ATCC 11775; assay type: cell-based; conditions: broth microdilution
# [20] = tested on: E. coli ML35; test: Permeabilising internal membrane (ONPG); assay type: cell-based; conditions: 1× MIC, ONPG, 405 nm, 4.5 h
MIC [4],MIC [5],MIC [6],Compound,MIC P. aeruginosa 27853 [1],MHC (minimum haemolytic concentration) [2],MIC E. coli 25922 [3],other results
,,,ALQYIKLLKE-NH2 [Peptide 35409-6],>100 µM,>200 µM,>100 µM,
,,,KKMKKALQYIKL-NH2 [Peptide 35409-14],>100 µM,100 µM,>100 µM,
≥ 64 µg/mL,4 µg/mL,16 µg/mL,CC(=O)OCC1=C(C(=O)O)N2C(=O)[C@@H](NC(=O)Cc3cccs3)[C@H]2SC1 [Cephalothin],,,,
,,,"O=C(O)c1cn(C2CC2)c2cc(N3CCNCC3)c(F)cc2c1=O [Ciprofloxacin, ciprofloxacin, reference compound]",,,,"MIC ([7]; Escherichia coli, 25922, read-out: MIC against E. coli 25922, Serum (6 h Pre-Incubation) (ciprofloxacin), fresh human sera (100%), 6 h pre-incubation at 37 °C): 4 ng/mL"
,,,KKMKKALQYIKLLKE-NH2 [Peptide 35409-3],>100 µM,>200 µM,>100 µM,
≥ 64 µg/mL,≤ 1 µg/mL,≤ 1 µg/mL,CC(C)(O/N=C(\C(=O)N[C@@H]1C(=O)N2C(C(=O)[O-])=C(C[n+]3ccccc3)CS[C@H]12)c1csc(N)n1)C(=O)O [Ceftazidime],,,,
≥ 64 µg/mL,≤ 1 µg/mL,≤ 1 µg/mL,CO/N=C(\C(=O)N[C@@H]1C(=O)N2C(C(=O)O)=C(COC(C)=O)CS[C@H]12)c1csc(N)n1 [Cefotaxime],,,,
,,,KMKKALQYIKLLKE-NH2 [Peptide 35409-4],>100 µM,>200 µM,100 µM,"MIC E. coli N°40 [8]: >100 µM; MIC E. coli N°4 [9]: >100 µM; MIC E. coli N°44 [10]: 100 µM; FIC Index [11]: 3; FIC P (peptide) [11]: 1; MIC against E. coli 25922, Serum (without Pre-Incubation) [7]: 100 µM; MBC E. coli ML35 43827 [12]: 50 µM; MBC E. coli 25922 [13]: 100 µM; MIC E. coli ML35 43827 [14]: 25 µM; FIC Index [15]: 0.75; FIC P (peptide) [15]: 0.25; MIC E. coli 35218 [16]: 25 µM; MBC E. coli N°44 [17]: > 100 µM; MBC E. coli 35218 [18]: 50 µM; MIC against E. coli 25922, MHB [3]: 100 µM; MIC E. coli 11775 [19]: >100 µM"
≥ 32 µg/mL,≥ 32 µg/mL,≥ 32 µg/mL,"CC1(C)S[C@@H]2[C@H](NC(=O)[C@H](N)c3ccccc3)C(=O)N2[C@H]1C(=O)O [Ampicillin, ampicillin, reference compound]",,,,MIC E. coli ML35 43827 (antibiotics) [14]: <0.016 µg/mL; MIC E. coli 35218 (antibiotics) [16]: >16 µg/mL; MIC E. coli 11775 (antibiotics) [19]: <0.016 µg/mL
,,,"cecropin P1 (SWLSKTAKKLENSAKKRISEGIAIAIQGGPR; UniProt P14661 14-44, looked up) [positive permeabilisation control peptide, reference compound]",,,,permeabilisation of E. coli internal membrane [20]: capable of inducing a high rate of permeabilisation for the first 30 min of incubation
,,,RKKKMKKALQY-NH2 [Peptide 35409-15],>100 µM,200 µM,>100 µM,
,,,KKKMKKALQYIKLLKE-NH2 [Peptide 35409-2],>100 µM,>200 µM,25 µM,"MIC E. coli N°40 [8]: 50 µM; MIC E. coli N°4 [9]: >100 µM; MIC E. coli N°44 [10]: 50 µM; FIC Index [11]: 3; FIC P (peptide) [11]: 1; MIC against E. coli 25922, Serum (without Pre-Incubation) [7]: 25 µM; MBC E. coli ML35 43827 [12]: 12.5 µM; MBC E. coli 25922 [13]: 25 µM; MIC E. coli ML35 43827 [14]: 6 µM; FIC Index [15]: 0.75; FIC P (peptide) [15]: 0.25; MIC E. coli 35218 [16]: 12.5 µM; MBC E. coli N°44 [17]: > 100 µM; MBC E. coli 35218 [18]: 25 µM; MIC against E. coli 25922, MHB [3]: 25 µM; MIC E. coli 11775 [19]: >100 µM"
,,,YIKLLKE-NH2 [Peptide 35409-7],>100 µM,>200 µM,>100 µM,
,,,RYRRKKKMKKALQY-NH2 [Peptide 35409-9],>100 µM,>200 µM,>100 µM,
≤ 16 µg/mL,≤ 16 µg/mL,≤ 16 µg/mL,O=C1CN(/N=C/c2ccc([N+](=O)[O-])o2)C(=O)N1 [Nitrofurantoin],,,,
≤ 4 µg/mL,≤ 4 µg/mL,≤ 4 µg/mL,CO[C@@]1(NC(=O)Cc2cccs2)C(=O)N2C(C(=O)O)=C(COC(N)=O)CS[C@@H]21 [Cefoxitin],,,,
≤ 0.25 µg/mL,≤ 0.25 µg/mL,≤ 0.25 µg/mL,C[C@@H](O)[C@H]1C(=O)N2C(C(=O)O)=C(S[C@@H]3CN[C@H](C(=O)N(C)C)C3)[C@H](C)[C@H]12 [Meropenem],,,,
32 µg/mL,≤ 2 µg/mL,≤ 2 µg/mL,NCC[C@H](O)C(=O)N[C@@H]1C[C@H](N)[C@@H](O[C@H]2O[C@H](CN)[C@@H](O)[C@H](O)[C@H]2O)[C@H](O)[C@H]1O[C@H]1O[C@H](CO)[C@@H](O)[C@H](N)[C@H]1O [Amikacin],,,,
,,,RYRRKKK-NH2 [Peptide 35409-12],>100 µM,>200 µM,>100 µM,
,,,RYRRKKKMKKA-NH2 [Peptide 35409-10],>100 µM,>200 µM,>100 µM,
≥ 32 µg/mL,≥ 32 µg/mL,≤ 2 µg/mL,CCn1cc(C(=O)O)c(=O)c2ccc(C)nc21 [Nalidixic acid],,,,
,,,RYRRKKKMKK-NH2 [Peptide 35409-11],>100 µM,>200 µM,>100 µM,
,,,RYRRKKKMKKALQYIKL-NH2 [Peptide 35409-8],>100 µM,>200 µM,>100 µM,
,,,KMKKALQY-NH2 [Peptide 35409-16],>100 µM,>200 µM,>100 µM,
,,,MKKALQYIKLLKE-NH2 [Peptide 35409-5],>100 µM,>200 µM,>100 µM,
≤ 1 µg/mL,≤ 1 µg/mL,≤ 1 µg/mL,C[C@@H](O)[C@H]1C(=O)N2C(C(=O)O)=C(SCCN=CN)C[C@H]12 [Imipenem],,,,
,≤ 1 µg/mL,,CO/N=C(\C(=O)N[C@@H]1C(=O)N2C(C(=O)[O-])=C(C[N+]3(C)CCCC3)CS[C@H]12)c1csc(N)n1 [Cefepime],,,,
